Measured values: PubChem BioAssay (NCI)
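Test compounds were applied to cells in 96-well plates for 48 hours at 5 doses. Abbreviation: GI50, concentration required for 50% inhibition of growth. TGI denotes the concentration required for complete inhibition of growth.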

Tests used:
Test in all cases: inhibition of tumour cell growth, NCI panel, 48 h
786-0 renal = system: 786-0 renal
A498 renal = system: A498 renal
A549 NSCLC = system: A549 NSCLC
ACHN renal = system: ACHN renal
BT-549 breast = system: BT-549 breast
CAKI-1 renal = system: CAKI-1 renal
CCRF-CEM leukemia = system: CCRF-CEM leukemia
COLO 205 colon = system: COLO 205 colon
DU-145 prostate = system: DU-145 prostate
EKVX NSCLC = system: EKVX NSCLC
HCC-2998 colon = system: HCC-2998 colon
HCT-116 colon = system: HCT-116 colon
HCT-15 colon = system: HCT-15 colon
HOP-62 NSCLC = system: HOP-62 NSCLC
HOP-92 NSCLC = system: HOP-92 NSCLC
HS 578T breast = system: HS 578T breast
HT29 colon = system: HT29 colon
IGROV1 ovarian = system: IGROV1 ovarian
K-562 leukemia = system: K-562 leukemia
KM12 colon = system: KM12 colon
LOX IMVI melanoma = system: LOX IMVI melanoma
M14 melanoma = system: M14 melanoma
MALME-3M melanoma = system: MALME-3M melanoma
MCF7 breast = system: MCF7 breast
MDA-MB-231 breast = system: MDA-MB-231 breast
MDA-MB-435 = system: MDA-MB-435
MOLT-4 leukemia = system: MOLT-4 leukemia
NCI-H226 lung = system: NCI-H226 lung
NCI-H23 lung = system: NCI-H23 lung
NCI-H460 lung = system: NCI-H460 lung
NCI-H522 lung = system: NCI-H522 lung
NCI/ADR-RES ovarian = system: NCI/ADR-RES ovarian
OVCAR-3 ovarian = system: OVCAR-3 ovarian
OVCAR-4 ovarian = system: OVCAR-4 ovarian
OVCAR-5 ovarian = system: OVCAR-5 ovarian
OVCAR-8 ovarian = system: OVCAR-8 ovarian
PC-3 prostate = system: PC-3 prostate
RPMI-8226 leukemia = system: RPMI-8226 leukemia
RXF 393 renal = system: RXF 393 renal
SF-268 CNS = system: SF-268 CNS
SF-295 CNS = system: SF-295 CNS
SF-539 CNS = system: SF-539 CNS
SK-MEL-2 melanoma = system: SK-MEL-2 melanoma
SK-MEL-28 melanoma = system: SK-MEL-28 melanoma
SK-MEL-5 melanoma = system: SK-MEL-5 melanoma
SK-OV-3 ovarian = system: SK-OV-3 ovarian
SN12C renal = system: SN12C renal
SNB-19 CNS = system: SNB-19 CNS
SNB-75 CNS = system: SNB-75 CNS
SW-620 colon = system: SW-620 colon
T-47D breast = system: T-47D breast
TK-10 renal = system: TK-10 renal
U251 CNS = system: U251 CNS
UACC-257 melanoma = system: UACC-257 melanoma
UACC-62 melanoma = system: UACC-62 melanoma
UO-31 renal = system: UO-31 renal

Cc1c(Cl)c(=O)oc2cc(OC/C=C3\CCC(=O)O3)ccc12
GI50 (786-0 renal): 12.8 µM
TGI (786-0 renal): 29.3 µM
GI50 (A498 renal): 21.1 µM
TGI (A498 renal): 75.3 µM
GI50 (A549 NSCLC): 58.2 µM
TGI (A549 NSCLC): > 100 µM
GI50 (ACHN renal): 4.22 µM
TGI (ACHN renal): 17.9 µM
GI50 (BT-549 breast): 15.7 µM
TGI (BT-549 breast): 32 µM
GI50 (CAKI-1 renal): 11.6 µM
TGI (CAKI-1 renal): 30.2 µM
GI50 (CCRF-CEM leukemia): 12.5 µM
TGI (CCRF-CEM leukemia): 61.3 µM
GI50 (COLO 205 colon): 12.9 µM
TGI (COLO 205 colon): 30.1 µM
GI50 (DU-145 prostate): 14 µM
TGI (DU-145 prostate): 29.4 µM
GI50 (EKVX NSCLC): 29.9 µM
TGI (EKVX NSCLC): > 100 µM
GI50 (HCC-2998 colon): 18 µM
TGI (HCC-2998 colon): 41.2 µM
GI50 (HCT-116 colon): 13.9 µM
TGI (HCT-116 colon): 28.3 µM
GI50 (HCT-15 colon): 15.3 µM
TGI (HCT-15 colon): 30 µM
GI50 (HOP-62 NSCLC): 23.6 µM
TGI (HOP-62 NSCLC): 66.1 µM
GI50 (HOP-92 NSCLC): 13 µM
TGI (HOP-92 NSCLC): 30 µM
GI50 (HS 578T breast): 24.2 µM
TGI (HS 578T breast): 77.4 µM
GI50 (HT29 colon): 17.2 µM
TGI (HT29 colon): 43.3 µM
GI50 (IGROV1 ovarian): 12.9 µM
TGI (IGROV1 ovarian): 27.5 µM
GI50 (K-562 leukemia): 28.2 µM
TGI (K-562 leukemia): 78.7 µM
GI50 (KM12 colon): 26.1 µM
TGI (KM12 colon): 75.3 µM
GI50 (LOX IMVI melanoma): 15.6 µM
TGI (LOX IMVI melanoma): 29.7 µM
GI50 (M14 melanoma): 13.3 µM
TGI (M14 melanoma): 31.7 µM
GI50 (MALME-3M melanoma): 12.9 µM
TGI (MALME-3M melanoma): 32.2 µM
GI50 (MCF7 breast): 13.4 µM
TGI (MCF7 breast): 37.8 µM
GI50 (MDA-MB-231 breast): 16.8 µM
TGI (MDA-MB-231 breast): 33.2 µM
GI50 (MDA-MB-435): 25.3 µM
TGI (MDA-MB-435): 96.3 µM
GI50 (MOLT-4 leukemia): 16.5 µM
TGI (MOLT-4 leukemia): > 100 µM
GI50 (NCI-H226 lung): 34.6 µM
TGI (NCI-H226 lung): > 100 µM
GI50 (NCI-H23 lung): 17.4 µM
TGI (NCI-H23 lung): 32.7 µM
GI50 (NCI-H460 lung): 26.9 µM
TGI (NCI-H460 lung): > 100 µM
GI50 (NCI-H522 lung): 11 µM
TGI (NCI-H522 lung): 24.2 µM
GI50 (NCI/ADR-RES ovarian): 24.1 µM
TGI (NCI/ADR-RES ovarian): 59.4 µM
GI50 (OVCAR-3 ovarian): 14.7 µM
TGI (OVCAR-3 ovarian): 33.1 µM
GI50 (OVCAR-4 ovarian): 15.2 µM
TGI (OVCAR-4 ovarian): 36.1 µM
GI50 (OVCAR-5 ovarian): 27.8 µM
TGI (OVCAR-5 ovarian): 80 µM
GI50 (OVCAR-8 ovarian): 20 µM
TGI (OVCAR-8 ovarian): 47.2 µM
GI50 (PC-3 prostate): 14.2 µM
TGI (PC-3 prostate): 38.8 µM
GI50 (RPMI-8226 leukemia): 7.63 µM
TGI (RPMI-8226 leukemia): 42.6 µM
GI50 (RXF 393 renal): 23.5 µM
TGI (RXF 393 renal): > 100 µM
GI50 (SF-268 CNS): 18.8 µM
TGI (SF-268 CNS): 64.3 µM
GI50 (SF-295 CNS): 62.9 µM
TGI (SF-295 CNS): > 100 µM
GI50 (SF-539 CNS): 17.4 µM
TGI (SF-539 CNS): 56.5 µM
GI50 (SK-MEL-2 melanoma): 15.7 µM
TGI (SK-MEL-2 melanoma): 40.5 µM
GI50 (SK-MEL-28 melanoma): 19.7 µM
TGI (SK-MEL-28 melanoma): 50 µM
GI50 (SK-MEL-5 melanoma): 21 µM
TGI (SK-MEL-5 melanoma): 52.2 µM
GI50 (SK-OV-3 ovarian): 58 µM
TGI (SK-OV-3 ovarian): > 100 µM
GI50 (SN12C renal): 16.8 µM
TGI (SN12C renal): 41.4 µM
GI50 (SNB-19 CNS): 17.7 µM
TGI (SNB-19 CNS): 51.7 µM
GI50 (SNB-75 CNS): 17.9 µM
TGI (SNB-75 CNS): 37.5 µM
GI50 (SW-620 colon): 13.5 µM
TGI (SW-620 colon): 35.6 µM
GI50 (T-47D breast): 13.6 µM
TGI (T-47D breast): 36.2 µM
GI50 (TK-10 renal): 13.8 µM
TGI (TK-10 renal): 32.6 µM
GI50 (U251 CNS): 16.8 µM
TGI (U251 CNS): 33.3 µM
GI50 (UACC-257 melanoma): 27.2 µM
TGI (UACC-257 melanoma): 99 µM
GI50 (UACC-62 melanoma): 16.8 µM
TGI (UACC-62 melanoma): 33.9 µM
GI50 (UO-31 renal): 12.1 µM
TGI (UO-31 renal): 25 µM
